Source: US20170080049A1, “MEDICINE AGAINST GROWTH FAILURE INDUCED BY ADMINISTRATION OF STEROID” (DAIICHI SANKYO COMPANY, LIMITED, priority 2014, published 2017)

How the values were obtained:
Assay type in all cases: in vivo
[1] = system: rat growth failure induced by dexamethasone; assay: Action comparing study between CNP derivative (A) and human growth hormone on rat growth failure induced by dexamethasone (Example 6); conditions: 2 mL/kg s.c. once a day 28 days, n=4 or 5
Protocol: Osmotic pumps (MINI-OSMOTIC PUMP Model 2004, available from DURECT CORPORATION, flow rate: 0.25 μL/hr, for 28 days) were charged with a 0.67 mg/mL solution of dexamethasone (dexamethasone injection “KS”, available from Kyoritsuseiyaku Corporation), and one osmotic pump was embedded in the hypoderm of the back of each 4-week-old male Crlj:WI (Wistar) rat (5 animals/group, Group 2 to Group 4, total of 15 animals). For Group 3, a 1 mg/mL solution of CNP derivative (A) (medium: 0.03 mol/L acetate buffer (pH 4.0)/1% benzyl alcohol/10% sucrose), and for Group 4, a 1 mg/mL solution of human-type growth hormone preparation (somatropin BS subcutaneous injection 10 mg “SANDOZ”) diluted with a phosphate buffer was administered to the hypoderm of the back of five rats, respectively, in a volume of 2 mL/kg once a day for 28 days. No substance was administered to the normal control group (5 animals, Group 1). On the final day, after measuring the body weight, the body length and the tail length, the blood was collected from the abdominal aorta and the animal was caused to die under isoflurane anesthesia, the left femur was extracted and the bone length was measured, and then a histopathological specimen of the epiphyseal region was prepared.

[2] = system: rat growth failure induced by dexamethasone; assay: Follow-up administration test of CNP derivative (A) for rat growth failure induced by dexamethasone (Example 4); conditions: n=5
Protocol: Osmotic pumps (MINI-OSMOTIC PUMP Model 2004, available from DURECT CORPORATION, flow rate: 0.25 μL/hr, for 28 days) were charged with a 0.67 mg/mL solution of dexamethasone (dexamethasone injection “KS”, available from Kyoritsuseiyaku Corporation), and one osmotic pump was embedded in the hypoderm of the back of each 4-week-old male Crlj:WI (Wistar) rat (5 animals/group, Group 2 and Group 3), and the animals were fed for 14 days. […] During the feeding period, transitions of the body weight, the body length and the tail length were measured, and on the final day, blood was collected from the abdominal aorta and the animal was caused to die under isoflurane anesthesia, the right femur was extracted and its length was measured.

[3] = system: dexamethasone-induced rat growth failure model; assay: Combined administration study of human-type CNP-53 or various CNP derivatives in dexamethasone-induced rat growth failure model (Example 3); conditions: dexamethasone 0.67 mg/mL pump alone or combined with 15 mg/mL pump of the CNP peptide, 5-week-old male Wistar rat, n=5
Protocol: Osmotic pumps (MINI-OSMOTIC PUMP Model 2004, available from DURECT CORPORATION, flow rate: 0.25 μL/hr, for 28 days) were charged with 0.67 mg/mL solution of dexamethasone (dexamethasone injection “KS”, available from Kyoritsuseiyaku Corporation) and one osmotic pump was embedded in the hypoderm of the back of each 5-week-old male Crlj:WI (Wistar) rat (5 animals/group, Groups 2 to 6, a total of 25 animals). At the same time, one osmotic pump (the same as above) charged with a 15 mg/mL solution of CNP derivative (A) in Group 3, human-type CNP-53 in Group 4, CNP derivative (B) in Group 5 and CNP derivative (C) in Group 6 was embedded in the hypoderm of the back simultaneously. No substance was administered to the normal control group (Group 1, 5 animals). Then the animals were fed for 28 days, and transitions of the body weight, the body length and the tail length were measured. On the final day, the blood was collected from the abdominal aorta and the animals were caused to die under isoflurane anesthesia, and plasma was separated from the collected blood and the cholesterol concentration was determined by using a “LabAssay (trademark) cholesterol” (available from Wako Pure Chemical Industries, Ltd.). After collecting the blood and causing the animals to die, the right femur and thymus were extracted, and the length of the right femur and the weight of the thymus were measured.

[4] = system: male Crl: CD (SD) rat; assay: Preparation of dexamethasone-induced growth failure model rat (Example 1); conditions: continuous s.c. dexamethasone 0.5 or 1 mg/mL, 28 days
Protocol: Osmotic pumps (MINI-OSMOTIC PUMP Model 2004, available from DURECT CORPORATION, flow rate: 0.25 μL/hr, for 28 days) were charged with dexamethasone (dexamethasone injection “KS”, available from Kyoritsuseiyaku Corporation) having a concentration of 0.5 mg/mL (Group 2) or 1 mg/mL (Group 3), and one osmotic pump was embedded in the hypoderm of the back of each 7-week-old male Crl: CD (SD) rat (5 animals/group, a total of 10 animals). Additionally, in a control group (Group 1, 5 animals), one osmotic pump (the same as above) charged with saline was embedded in the hypoderm of the back of each animal. Then the animals were fed for 28 days, and their bodyweight was measured twice or three times a week. On the final day, after blood collection under isoflurane anesthesia followed by immediate euthanasia, the right femur was extracted, and the length was measured. Plasma was separated from the collected blood, and cholesterol concentration was determined by using cholesterol E-Test Wako (available from Wako Pure Chemical Industries, Ltd.), and the plasma corticosterone concentration was determined by using a Corticosterone, ELISA Kit, AssayMax (96 well) (EC3001-1, available from ASSAYPRO LLC.).

[5] = dexamethasone 0.67 mg/mL pump alone or with CNP derivative (A) or human-type growth hormone 1 mg/mL
[6] = dexamethasone 0.67 mg/mL pump alone or with CNP derivative (A) 15 mg/mL pump for 28 days from Day 14
[7] = dexamethasone 0.67 mg/mL pump, 4-week-old male Wistar rat, baseline before CNP derivative (A)

C[C@@H]1C[C@H]2[C@@H]3CCC4=CC(=O)C=C[C@]4(C)[C@@]3(F)[C@@H](O)C[C@]2(C)[C@@]1(O)C(=O)CO [Dexamethasone, dexamethasone]
Body weight at dissection ([1]; dexamethasone 0.67 mg/mL pump 28 days alone or with CNP derivative (A) or human-type growth hormone 1 mg/mL, 4-week-old male Wistar rat, mean ± SD): 245 ± 12 g
Body length at dissection [1, 5]: 199 ± 4 mm
Body length, variation from pre-administration value (Δ value) [1, 5]: (46.8 ± 4.7) mm
Body weight, variation from pre-administration value (Δ value) [1, 5]: (139 ± 13) g
Left femur length at dissection [1, 5]: 31.3 ± 0.2 mm
Tail length at dissection [1, 5]: 197 ± 5 mm
Tail length, variation from pre-administration value (Δ value) [1, 5]: (65.0 ± 4.9) mm
Body weight at dissection (Day 28 of CNP derivative (A) administration) ([2]; dexamethasone 0.67 mg/mL pump 28 days alone or with CNP derivative (A) 15 mg/mL pump for 28 days from Day 14, male Wistar rat): 308 ± 20 g
Body length at dissection (Day 28 of CNP derivative (A) administration) [2, 6]: 204 ± 3 mm
Body length variation (Δ value) from starting of administration of CNP derivative (A) [2, 6]: (30 ± 1) mm
Body weight variation (Δ value) from starting of administration of CNP derivative (A) [2, 6]: (129 ± 9) g
Right femur length only at dissection [2, 6]: 32.9 ± 0.7 mm
Tail length at dissection (Day 28 of CNP derivative (A) administration) [2, 6]: 202 ± 8 mm
Tail length variation (Δ value) from starting of administration of CNP derivative (A) [2, 6]: (25 ± 7) mm
Body weight, Day 14 of dexamethasone administration (prior to administration of CNP derivative (A)) ([2]; dexamethasone 0.67 mg/mL pump, 4-week-old male Wistar rat, baseline before CNP derivative (A), mean ± SD): 179 ± 12 g
Body length, Day 14 of dexamethasone administration (prior to administration of CNP derivative (A)) [2, 7]: 174 ± 4 mm
Tail length, Day 14 of dexamethasone administration (prior to administration of CNP derivative (A)) [2, 7]: 177 ± 7 mm
Body weight at dissection ([3]; 0.25 μL/hr continuous s.c. 28 days, mean ± SD): 286 ± 17 g
Body length at dissection ([3]; continuous s.c. 28 days): 199 ± 2 mm
Body length, variation from preadministration value (Δ value) ([3]; continuous s.c. 28 days): (23.8 ± 2.4) mm
Body weight, variation from preadministration value (Δ value) ([3]; continuous s.c. 28 days): (118 ± 15) g
Right femur length at dissection ([3]; continuous s.c. 28 days): 32.7 ± 0.3 mm
Tail length at dissection ([3]; continuous s.c. 28 days): 202 ± 3 mm
Tail length, variation from preadministration value (Δ value) ([3]; continuous s.c. 28 days): (35.2 ± 3.7) mm
thymus body weight ratio ([3]; continuous s.c. 28 days): [0.11 ± 0.02%]
thymus weight at dissection ([3]; continuous s.c. 28 days): 0.36 ± 0.04 g
body weight (in words) ([4]; SD rat (FIG. 1)): decreased dose-dependently
femur length (in words) ([4]; SD rat (FIG. 2)): shortened dose-dependently
